# Assay results: PubChem BioAssay (NCI)
#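 In this assay, cells in 96-well plates receive the compound at five concentrations for 48 hours. Endpoints are linearly interpolated between the surrounding concentrations. The concentration for 50% growth inhibition is given as GI50. At the TGI there is no net growth.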
# Columns and labels:
# Test in all cases: NCI tumour cell line growth inhibition, 48 h
# [1] = test system: HT29 colon
# [2] = test system: EKVX NSCLC
# [3] = test system: UO-31 renal
# [4] = test system: MDA-MB-435
# [5] = test system: T-47D breast
# [6] = test system: SK-MEL-28 melanoma
# [7] = test system: HCT-15 colon
# [8] = test system: K-562 leukemia
# [9] = test system: OVCAR-5 ovarian
# [10] = test system: IGROV1 ovarian
# [11] = test system: LOX IMVI melanoma
# [12] = test system: 786-0 renal
# [13] = test system: CCRF-CEM leukemia
# [14] = test system: SR leukemia
# [15] = test system: COLO 205 colon
# [16] = test system: UACC-62 melanoma
# [17] = test system: NCI-H226 lung
# [18] = test system: HL-60(TB) leukemia
# [19] = test system: SF-268 CNS
# [20] = test system: HS 578T breast
# [21] = test system: SK-OV-3 ovarian
# [22] = test system: MDA-MB-231 breast
# [23] = test system: MALME-3M melanoma
# [24] = test system: ACHN renal
# [25] = test system: HCT-116 colon
# [26] = test system: NCI-H522 lung
# [27] = test system: DU-145 prostate
# [28] = test system: HOP-62 NSCLC
# [29] = test system: SW-620 colon
# [30] = test system: NCI/ADR-RES ovarian
# [31] = test system: RXF 393 renal
# [32] = test system: SK-MEL-2 melanoma
# [33] = test system: OVCAR-3 ovarian
# [34] = test system: MCF7 breast
# [35] = test system: UACC-257 melanoma
# [36] = test system: PC-3 prostate
# [37] = test system: BT-549 breast
# [38] = test system: CAKI-1 renal
# [39] = test system: A549 NSCLC
# [40] = test system: NCI-H460 lung
# [41] = test system: U251 CNS
# [42] = test system: MOLT-4 leukemia
# [43] = test system: HCC-2998 colon
# [44] = test system: KM12 colon
# [45] = test system: SK-MEL-5 melanoma
# [46] = test system: SF-295 CNS
# [47] = test system: TK-10 renal
# [48] = test system: NCI-H23 lung
# [49] = test system: OVCAR-4 ovarian
# [50] = test system: SF-539 CNS
# [51] = test system: RPMI-8226 leukemia
# [52] = test system: SN12C renal
# [53] = test system: SNB-19 CNS
# [54] = test system: OVCAR-8 ovarian
# [55] = test system: SNB-75 CNS
# [56] = test system: M14 melanoma
# [57] = test system: A498 renal
# [58] = test system: HOP-92 NSCLC
smiles,measurement,setting,value
CC1(C)N=C(N)N=C(N)N1c1cccc(C#N)c1,GI50,[1],0.933 µM
same,TGI,[1],> 100 µM
same,GI50,[2],1.09 µM
same,TGI,[2],> 100 µM
same,GI50,[3],5.9 µM
same,TGI,[3],> 100 µM
same,GI50,[4],0.594 µM
same,TGI,[4],> 100 µM
same,GI50,[5],> 100 µM
same,TGI,[5],> 100 µM
same,GI50,[6],48.8 µM
same,TGI,[6],> 100 µM
same,GI50,[7],5.65 µM
same,TGI,[7],> 100 µM
same,GI50,[8],0.293 µM
same,TGI,[8],> 100 µM
same,GI50,[9],2.74 µM
same,TGI,[9],> 100 µM
same,GI50,[10],6.7 µM
same,TGI,[10],> 100 µM
same,GI50,[11],0.605 µM
same,TGI,[11],> 100 µM
same,GI50,[12],0.578 µM
same,TGI,[12],> 100 µM
same,GI50,[13],3.05 µM
same,TGI,[13],> 100 µM
same,GI50,[14],4.36 µM
same,TGI,[14],> 100 µM
same,GI50,[15],31 µM
same,TGI,[15],> 100 µM
same,GI50,[16],3.84 µM
same,TGI,[16],> 100 µM
same,GI50,[17],7.07 µM
same,TGI,[17],> 100 µM
same,GI50,[18],3.46 µM
same,TGI,[18],> 100 µM
same,GI50,[19],0.692 µM
same,TGI,[19],> 100 µM
same,GI50,[20],71.6 µM
same,TGI,[20],> 100 µM
same,GI50,[21],21.2 µM
same,TGI,[21],> 100 µM
same,GI50,[22],> 100 µM
same,TGI,[22],> 100 µM
same,GI50,[23],16.7 µM
same,TGI,[23],> 100 µM
same,GI50,[24],4.09 µM
same,TGI,[24],> 100 µM
same,GI50,[25],0.364 µM
same,TGI,[25],> 100 µM
same,GI50,[26],4.68 µM
same,TGI,[26],> 100 µM
same,GI50,[27],6.53 µM
same,TGI,[27],> 100 µM
same,GI50,[28],16.6 µM
same,TGI,[28],> 100 µM
same,GI50,[29],0.567 µM
same,TGI,[29],> 100 µM
same,GI50,[30],75.9 µM
same,TGI,[30],> 100 µM
same,GI50,[31],4.33 µM
same,TGI,[31],> 100 µM
same,GI50,[32],8.99 µM
same,TGI,[32],> 100 µM
same,GI50,[33],19 µM
same,TGI,[33],> 100 µM
same,GI50,[34],3.85 µM
same,TGI,[34],> 100 µM
same,GI50,[35],11.7 µM
same,TGI,[35],> 100 µM
same,GI50,[36],2.66 µM
same,TGI,[36],> 100 µM
same,GI50,[37],27.9 µM
same,TGI,[37],> 100 µM
same,GI50,[38],2.45 µM
same,TGI,[38],> 100 µM
same,GI50,[39],0.932 µM
same,TGI,[39],> 100 µM
same,GI50,[40],2.8 µM
same,TGI,[40],> 100 µM
same,GI50,[41],0.752 µM
same,TGI,[41],> 100 µM
same,GI50,[42],3.21 µM
same,TGI,[42],> 100 µM
same,GI50,[43],7.11 µM
same,TGI,[43],> 100 µM
same,GI50,[44],7.37 µM
same,TGI,[44],> 100 µM
same,GI50,[45],8.1 µM
same,TGI,[45],> 100 µM
same,GI50,[46],2.05 µM
same,TGI,[46],24.1 µM
same,GI50,[47],18.2 µM
same,TGI,[47],> 100 µM
same,GI50,[48],5.32 µM
same,TGI,[48],> 100 µM
same,GI50,[49],> 100 µM
same,TGI,[49],> 100 µM
same,GI50,[50],3.74 µM
same,TGI,[50],> 100 µM
same,GI50,[51],62.9 µM
same,TGI,[51],> 100 µM
same,GI50,[52],6.1 µM
same,TGI,[52],> 100 µM
same,GI50,[53],49.4 µM
same,TGI,[53],> 100 µM
same,GI50,[54],0.599 µM
same,TGI,[54],> 100 µM
same,GI50,[55],9.03 µM
same,TGI,[55],> 100 µM
same,GI50,[56],0.696 µM
same,TGI,[56],> 100 µM
same,GI50,[57],20.9 µM
same,TGI,[57],> 100 µM
Nc1nc(Cl)cc(N=Nc2ccccc2)n1,TGI,[1],> 100 µM
same,TGI,[2],> 100 µM
same,TGI,[3],> 100 µM
same,TGI,[4],> 100 µM
same,TGI,[5],> 100 µM
same,TGI,[6],> 100 µM
same,TGI,[7],35 µM
same,TGI,[8],> 100 µM
same,TGI,[9],> 100 µM
same,TGI,[10],51.3 µM
same,TGI,[11],67 µM
same,TGI,[12],> 100 µM
same,TGI,[13],> 100 µM
same,TGI,[14],> 100 µM
same,TGI,[15],> 100 µM
same,TGI,[16],> 100 µM
same,TGI,[17],> 100 µM
same,TGI,[18],75 µM
same,TGI,[19],> 100 µM
same,TGI,[20],> 100 µM
same,TGI,[21],> 100 µM
same,TGI,[22],> 100 µM
same,TGI,[23],> 100 µM
same,TGI,[24],97.2 µM
same,TGI,[25],32.2 µM
same,TGI,[26],> 100 µM
same,TGI,[27],> 100 µM
same,TGI,[28],60.1 µM
same,TGI,[29],> 100 µM
same,TGI,[30],> 100 µM
same,TGI,[31],97.2 µM
same,TGI,[32],46.9 µM
same,TGI,[33],30.3 µM
same,TGI,[34],> 100 µM
same,TGI,[35],> 100 µM
same,TGI,[37],> 100 µM
same,TGI,[38],> 100 µM
same,TGI,[39],> 100 µM
same,TGI,[42],> 100 µM
same,TGI,[44],> 100 µM
same,TGI,[45],40 µM
same,TGI,[46],> 100 µM
same,TGI,[47],> 100 µM
same,TGI,[48],55.5 µM
same,TGI,[50],> 100 µM
same,TGI,[51],> 100 µM
same,TGI,[52],> 100 µM
same,TGI,[53],> 100 µM
same,TGI,[54],97.6 µM
same,TGI,[55],> 100 µM
same,TGI,[58],7.53 µM
same,TGI,[56],> 100 µM
same,TGI,[57],> 100 µM
